The values that follow are results of earlier work, collected in US7749527B2, “Gel compositions for control of ecto-parasites” (Wyeth LLC, priority 2005, dated 2010).

Structures are written as SMILES.

The series concerns fleas and ticks. To be noted: companion animals.

On to `N#Cc1ccc(CC(=NNC(=O)Nc2ccc(OC(F)(F)F)cc2)c2cccc(C(F)(F)F)c2)cc1` [Metaflumizone, (E Z)-2-[2-(4-cyanophenyl)-1-[3-(trifluoromethyl)phenyl]ethylidene]-N-[4-(trifluoromethoxy)phenyl]hydrazinecarboxamide], for which the “protection from fleas and ticks” value is given as 4-6 weeks.
